According to US7018836B1, “P-TEFb compositions, methods and screening assays” (priority 1996, dated 2006):

How the values were obtained:
[1] = test system: P-TEFb; assay: Phosphorylation by P-TEFb of RNA polymerase II in high salt washed early elongation complexes (western blot); assay type: biochemical, Drosophila; conditions: 20 μM DRB
[2] = test system: mammalian cells in culture; conditions: DRB added to mammalian cells in culture; cited from earlier work
[3] = test system: transcription from HIV-1 LTR; assay: In vitro Tat transactivation in HNE with TAR and DTAR templates (FIG. 8); assay type: biochemical, human
Experimental: The transcription template (Nco I-digested pLTR-4/CAT vector containing the HIV-1 LTR from −153 to +80) was used in a pulse-chase transcription experiment. Reactions (12 μl total; 20 mM HEPES, pH 7.6, 7 mM MgCl2, 20 μg/ml DNA template, 3 μl HNE, 64 mM KCl, with 50 μM DRB or 0.3 μl Drosophila P-TEFb (Marshall et al., 1996) as indicated) were pre-incubated for 20 minutes at 30° C., pulsed for 2 minutes by adding ATP, GTP, UTP to 600 μM each and 5 μCi [α-^32P]CTP (˜0.1 mM), and chased for 5 minutes by adding CTP to 1.2 mM. Reactions were stopped, phenol extracted and analyzed on a 6% polyacrylamide gel as described (Marshall and Price, 1995). pLTR-TAR-Luc and pLTR-DTAR-Luc plasmids were digested with Eco RI to generate TAR and DTAR template that were used in the studies. The TAR template contains HIV-1 LTR from −475 to +76, while the DTAR template contains HIV-1 LTR from −475 to +19. Transcription with TAR and DTAR templates generates runoffs of 694 and 646 nucleotides, respectively. The transcription reaction mix contained 20 mM HEPES (pH7.6), 7 mM MgCl2, 60 mM KCl, 0.5 μl HNE (or depHNE as indicated), 20 μg/ml TAR template (or DTAR template as indicated), indicated amount of HIV-1 Tat (86 residue HIV-1 Tat followed by a streptavidin binding tag at its carboxyl terminus) and DRB. […] The transcripts were then analyzed on a 6% polyacrylamide gel as described (Marshall and Price, 1995).

In the case of OC[C@H]1O[C@@H](n2cnc3cc(Cl)c(Cl)cc32)[C@H](O)[C@@H]1O [DRB, 5,6-dichloro-1-β-D-ribofuranosylbenzimidazole], the “ability of P-TEFb to phosphorylate RNA polymerase II in an early elongation complex” value [1] is listed as “inhibited”, the “inhibition in the production of mature mRNA” value [2] is listed as 95% and the “effect of DRB on Tat-stimulated runoff” value ([3]; 50 μM DRB) is listed as “mostly inhibited”. The “sensitivity to DRB of the effect of Tat on initiation” value ([3]; pulse-only protocol) was “not sensitive”.
